Experimental data reported in ChEMBL document CHEMBL1136651, “Structure-based de novo design of non-nucleoside adenosine deaminase inhibitors” (Bioorg Med Chem Lett, 2003).

Columns and labels:
[1] = Pharmacokinetic property (C(max)) was determined after po administration of 32 mg/kg in mice; assay type: ADME, organism-based; set-up: dose 32 mg/kg, route oral; settings: mouse, in vivo
[2] = Pharmacokinetic property (AUC) was determined after po administration of 32 mg/kg in mice; assay type: ADME, organism-based; set-up: dose 32 mg/kg, route oral; settings: mouse, in vivo
[3] = Pharmacokinetic property (C(max)) was determined after ip administration of 32 mg/kg in mice; assay type: ADME, organism-based; set-up: dose 32 mg/kg, route intraperitoneal; settings: mouse, in vivo
[4] = Pharmacokinetic property (AUC) was determined after ip administration of 32 mg/kg in mice; assay type: ADME, organism-based; set-up: dose 32 mg/kg, route intraperitoneal; settings: mouse, in vivo
Adenosine deaminase = molecular target: T1, Adenosine deaminase (Homo sapiens, UniProt P00813)
T1 sequence (P00813 whole entry): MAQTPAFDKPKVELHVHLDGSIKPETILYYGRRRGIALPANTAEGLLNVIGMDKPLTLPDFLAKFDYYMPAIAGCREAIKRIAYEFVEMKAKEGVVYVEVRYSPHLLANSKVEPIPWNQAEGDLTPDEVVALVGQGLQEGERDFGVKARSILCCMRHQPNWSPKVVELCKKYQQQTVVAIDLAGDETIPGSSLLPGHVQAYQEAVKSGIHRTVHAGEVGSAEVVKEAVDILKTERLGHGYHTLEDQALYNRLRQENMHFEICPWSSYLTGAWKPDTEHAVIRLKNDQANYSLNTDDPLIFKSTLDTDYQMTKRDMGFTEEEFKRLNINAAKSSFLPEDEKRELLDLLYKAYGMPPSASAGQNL
Description: Inhibition constant against human adenosine deaminase was determined

Cmax [1] [µg/mL] | AUC [2] [µg·h/mL] | Cmax [3] [µg/mL] | AUC [4] [µg·h/mL] | Ki (Adenosine deaminase) [µM] | Compound
15.2 | 29.9 | 25.2 | 29.6 | – | NC(=O)c1cn(C(CO)CCc2ccccc2)cn1 (stereo not given) [FR-221647]
– | – | – | – | 54 | NC(=O)c1cn(C(CO)c2ccccc2)cn1 (stereo not given)
– | – | 12.2 | 9.5 | – | OC[C@H]1O[C@@H](n2cnc3c2NC=NC[C@H]3O)C[C@@H]1O [PENTOSTATIN]

More lines, now with the values behind:

Compound | Cmax [1] [µg/mL] | AUC [2] [µg·h/mL] | Cmax [3] [µg/mL] | AUC [4] [µg·h/mL] | Ki (Adenosine deaminase) [µM]
COC(=O)c1cn(C(CO)c2ccccc2)cn1 (stereo not given) | – | – | – | – | > 100
O=C(O)c1cn(C(CO)c2ccccc2)cn1 (stereo not given) | – | – | – | – | > 100
OCc1cn(C(CO)c2ccccc2)cn1 (stereo not given) | – | – | – | – | > 100
CCCCCC[C@@H]([C@@H](C)O)n1cnc2c(N)ncnc21 [EHNA] | 1.1 | 1 | 5.9 | 2.2 | 0.0037
